Structures are written as SMILES.

For one test, the target named is T1, PPARγ2 (Mus musculus, UniProt P37238).
T1 construct: expressed in transfected cells; host or cells: 3T3-L1 (mouse preadipocytes), pCS4 CMV vector
T1 sequence (P37238 1-505): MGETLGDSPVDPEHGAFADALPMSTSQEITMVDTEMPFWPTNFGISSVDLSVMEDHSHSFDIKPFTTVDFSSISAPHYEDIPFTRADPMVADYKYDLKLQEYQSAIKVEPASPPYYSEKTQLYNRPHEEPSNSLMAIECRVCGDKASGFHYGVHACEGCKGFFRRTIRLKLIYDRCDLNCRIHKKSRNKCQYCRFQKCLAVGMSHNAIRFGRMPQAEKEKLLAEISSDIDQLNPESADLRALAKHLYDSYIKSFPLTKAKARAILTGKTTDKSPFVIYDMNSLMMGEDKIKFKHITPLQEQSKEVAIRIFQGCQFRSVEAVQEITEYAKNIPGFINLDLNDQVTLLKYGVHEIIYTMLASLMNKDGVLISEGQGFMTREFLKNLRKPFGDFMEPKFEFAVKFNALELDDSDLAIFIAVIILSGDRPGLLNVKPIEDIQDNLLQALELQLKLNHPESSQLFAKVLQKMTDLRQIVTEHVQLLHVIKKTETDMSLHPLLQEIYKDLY
The test is described as follows: PPRE-Luc luciferase reporter assay of PPARγ2-induced transcriptional activity in 3T3-L1 cells. Particulars: for IC50: 3T3-L1 cotransfected with PPARγ2 and PPRE-Luc, read-out: IC50 with respect to PPARγ2-induced transcriptional activity; for inhibition of PPARγ2 transfection (transcriptional activity), with rosiglitazone stimulation / inhibition of PPARγ2 transfection (transcriptional activity), compound alone: 5 μM; for inhibition of PPARγ2 transfection (transcriptional activity), compound alone: without rosiglitazone. The class given is cell-based. As to the method: To analyze whether isoquinolinoquinazolinones inhibit the transactivation of PPARγ, 3T3-L1 cells were cotransfected with full-length PPARγ2 expression vector with a peroxisome proliferator response element (PPRE)-driven luciferase reporter gene (PPRE-Luc) that has been reported to respond to PPARγ[23][24]. […] Titration curves were generated using Graph Pad Prism®, and the IC50 value of each compound with respect to PPARγ2-induced transcriptional activity was determined.
The transcription activity was determined in 3T3-L1 cells transiently co-transfected with PPRE-driven luciferase reporter gene (PPRE-Luc) and PPARγ2 expression vector. […] After 24 h of transfection, the cells were cultured with indicated combination for 12 h. Luciferase activity was measured after 36 h.
For plasmids expressing PPARγ2, full length PPARγ2 (mouse, 1518 bp: NCBI Reference Sequence: NP_035276.2) was subcloned into CMV promoter-derived mammalian expression vector (pCS4). Plasmids for C285G, R288G mutant PPARγ2 were generated by PCR-based site-directed mutagenesis and also subcloned into CMV promoter-derived mammalian expression vector (pCS4).
3T3-L1 cells were transfected for indicated combinations of expression plasmids along with a luciferase reporter plasmid (PPRE-Luc). PPRE-Luc contains the consensus PPAR responsive element (PPRE). pCMV-β-gal was co-transfected for normalization of transfection efficiency. 24 h after transfection, cells were treated with indicated compounds for 12 h. Luciferase activities were measured using a luciferase reporter assay kit (Promega, Madison, WI, USA). Experiments were performed in triplicate and repeated at least three times.
(In general: In a reporter assay the amount or activity of a reporter protein is the signal.)

For another test, the system named is 3T3-L1 preadipocytes. The test is described as follows: Oil Red O staining assay of adipocyte differentiation. The test is classed as cell-based, mouse. Conditions: for inhibition at 25 µM: Mus musculus, 3T3-L1, relative absorbance from Oil Red O staining at 25 μM, read-out: Inhibitory activity (%) on adipocyte differentiation. The method, then:
The GW9662-mediated inhibition of PPARγ was confirmed using an Oil Red O staining assay to measure adipocyte differentiation. To investigate whether the novel compounds could inhibit adipocyte differentiation, 3T3-L1 preadipocytes were incubated with differentiation medium (MDI; insulin, dexamethasone, and isobutyl methyl xanthine) in the presence of increasing concentrations of isoquinolinoquinazolinones. Adipogenesis was analyzed using Oil Red O staining after treatment with the compounds.
The mouse preadipocyte cell line 3T3-L1 was maintained at 37 °C in humidified air with 5% CO2. 3T3-L1 cells were cultured in Dulbecco’s modified Eagle medium (DMEM; Life Technologies) supplemented with 10% bovine serum (BS; Gibco Invitrogen, Carlsbad, California, USA) as growth medium. For adipocyte differentiation, cells were cultured for 2 days to full confluence in a 24-well plate and the growth medium was then replaced (day 0) with DMEM supplemented with 10% fetal bovine serum (FBS, Gibco Invitrogen, Carlsbad, California, USA), 5 μg/mL insulin (Sigma, St. Louis, Missouri, USA), 0.5 mM 3-isobutyl-1-methylxanthine (Sigma), and 1 μM dexamethasone (Sigma). After 48 h, the differentiation medium was replaced (day 2) with DMEM + 10% FBS containing 5 μg/mL insulin, and the cells were allowed to accumulate lipid droplets until experimental use.
The accumulation of lipids signifying the formation of adipocytes was observed by staining the differentiated cells with Oil Red O. Following differentiation, cells were washed twice with phosphate-buffered saline (PBS), fixed with 10% formalin for 60 min. Oil Red O stock solution (0.5%) was prepared in isopropanol and filtered in cellulose nitrate filters. Cells were stained with Oil Red O diluted 6:4 in water for 1 h at room temperature. Excess Oil Red O dye was washed off twice with distilled water and then dried. The stained lipid droplets within cells were visualized using an optical microscope and photographed with a digital camera at 100× magnification.

Take `COc1cc2cc3n(c(=O)c2cc1OC)CNc1ccc(Cl)cc1-3` [Compound 8n, 2-Chloro-10,11-dimethoxy-5H-isoquinolino[2,3-c]quinazolin-8(6H)-one]: on PPARγ2, the half-maximal inhibitory concentration (IC50) amounted to 5.02 µM. In the test on 3T3-L1 preadipocytes, the inhibition at 25 µM came out at 71.5%.

As for `COc1cc2cc3n(c(=O)c2cc1OC)CNc1cc(Cl)ccc1-3` [Compound 8o, 3-Chloro-10,11-dimethoxy-5H-isoquinolino[2,3-c]quinazolin-8(6H)-one], on PPARγ2, the “inhibition of PPARγ2 transfection (transcriptional activity), with rosiglitazone stimulation” value is given as 88%; the “inhibition of PPARγ2 transfection (transcriptional activity), compound alone” value was found to be 82%; the IC50 was 2.43 µM. The inhibition at 25 µM with 3T3-L1 preadipocytes is 82.9%. For the same molecule, the “Inhibitory activity (%) on adipocyte differentiation” value in the test with 3T3-L1 preadipocytes (relative absorbance from Oil Red O staining at 25 μM, 25 µM) was 82.4%.

With `O=C(Nc1ccccc1)c1cc([N+](=O)[O-])ccc1Cl` [GW9662, reference compound], at PPARγ2, the “inhibition of PPARγ2 transfection (transcriptional activity), with rosiglitazone stimulation” value is 48%; the “inhibition of PPARγ2 transfection (transcriptional activity), compound alone” value is 46%; the IC50 was 4.47 µM. In the test on 3T3-L1 preadipocytes, the inhibition at 25 µM stood at 51.4%.

The term IC50 denotes the concentration that inhibits the measured activity by half.

Values taken from PMC5046141, “Discovery of Isoquinolinoquinazolinones as a Novel Class of Potent PPARγ Antagonists with Anti-adipogenic Effects” (Scientific Reports, 2016).
